Results taken from the supplement of paper PMC10307832.

Columns and labels:
Assay in all cases: relative viability (nuclei count vs DMSO), 5 days (fraction); higher = more cells survive
GSK126 + Olaparib = compound: CC[C@H](C)N1C=C(C2=C(C=C(C=C21)C3=CN=C(C=C3)N4CCNCC4)C(=O)NCC5=C(C=C(NC5=O)C)C)C [GSK126] + O=C(c1cc(Cc2n[nH]c(=O)c3ccccc23)ccc1F)N1CCN(C(=O)C2CC2)CC1 [Olaparib] (partner 8 µM)
Outline: (§1)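 Relative viability divides the nuclei count in treated wells by that in vehicle wells. Lung cancer cell lines were seeded in 1536-well plates, dosed by pin tool the next day, and fixed and stained after 5 days in one step with final 0.05% Triton X-100, 1% formaldehyde and 1 ug/ml Hoechst. Dosing was a single drug or a fixed anchor-drug dose plus five library-drug doses (not always all listed) in √10 steps, and values are medians of duplicate plates imaged at 4×.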

MLN4924 + Lapatinib = compound: NS(=O)(=O)OC[C@@H]1C[C@@H](n2ccc3c(N[C@H]4CCc5ccccc54)ncnc32)C[C@@H]1O [MLN4924] + CS(=O)(=O)CCNCc1ccc(-c2ccc3ncnc(Nc4ccc(OCc5cccc(F)c5)c(Cl)c4)c3c2)o1 [Lapatinib] (partner 2 µM)
Outline: as §1

Carboplatin + Alpelisib = compound: C1CC(C1)(C(=O)O)C(=O)O.[NH2-].[NH2-].[Pt+2] [Carboplatin] + Cc1nc(NC(=O)N2CCC[C@H]2C(N)=O)sc1-c1ccnc(C(C)(C)C(F)(F)F)c1 [Alpelisib] (partner 2 µM)
Outline: as §1

GSK126 + Trametinib = compound: CC[C@H](C)N1C=C(C2=C(C=C(C=C21)C3=CN=C(C=C3)N4CCNCC4)C(=O)NCC5=C(C=C(NC5=O)C)C)C [GSK126] + CC(=O)Nc1cccc(-n2c(=O)n(C3CC3)c(=O)c3c(Nc4ccc(I)cc4F)n(C)c(=O)c(C)c32)c1 [Trametinib] (partner 0.02 µM)
Outline: as §1

Row | Cell Line | relative viability (GSK126 + Olaparib; first compound 0.08 µM) | relative viability (GSK126 + Olaparib; first compound 0.253 µM) | relative viability (GSK126 + Olaparib; first compound 0.8 µM) | relative viability (GSK126 + Olaparib; first compound 2.53 µM) | relative viability (GSK126 + Olaparib; first compound 8 µM) | relative viability (MLN4924 + Lapatinib; first compound 0.04 µM) | relative viability (MLN4924 + Lapatinib; first compound 0.1265 µM) | relative viability (MLN4924 + Lapatinib; first compound 0.4 µM) | relative viability (MLN4924 + Lapatinib; first compound 1.265 µM) | relative viability (MLN4924 + Lapatinib; first compound 4 µM) | relative viability (Carboplatin + Alpelisib; first compound 0.08 µM) | relative viability (Carboplatin + Alpelisib; first compound 0.253 µM) | relative viability (Carboplatin + Alpelisib; first compound 0.8 µM) | relative viability (Carboplatin + Alpelisib; first compound 2.53 µM) | relative viability (Carboplatin + Alpelisib; first compound 8 µM) | relative viability (GSK126 + Trametinib; first compound 0.08 µM) | relative viability (GSK126 + Trametinib; first compound 0.253 µM) | relative viability (GSK126 + Trametinib; first compound 0.8 µM) | relative viability (GSK126 + Trametinib; first compound 2.53 µM) | relative viability (GSK126 + Trametinib; first compound 8 µM)
1 | HCC-44 | 1.01 | 1.02 | 1.03 | 0.92 | 1 | 0.657 | 0.249 | 0.159 | 0.142 | 0.145 | 0.904 | 0.887 | 0.733 | 0.717 | 0.635 | 1.08 | 1.04 | 1.06 | 1.03 | 1.06
2 | HCC-78 | 0.742 | 0.822 | 0.807 | 0.822 | 0.617 | 0.871 | 0.515 | 0.683 | 0.142 | 0.215 | 0.291 | 0.391 | 0.317 | 0.285 | 0.33 | 0.585 | 0.792 | 0.653 | 0.696 | 0.592
3 | HCC-366 | 0.451 | 0.386 | 0.366 | 0.396 | 0.342 | 0.788 | 0.479 | 0.037 | 0.0233 | 0.0288 | 0.476 | 0.552 | 0.344 | 0.294 | 0.314 | 0.391 | 0.357 | 0.343 | 0.309 | 0.337
4 | HCC-827 | 0.725 | 0.642 | 0.617 | 0.726 | 0.601 | 0.242 | 0.283 | 0.398 | 0.182 | 0.166 | 1.07 | 0.962 | 0.9 | 0.944 | 0.893 | 0.478 | 0.496 | 0.54 | 0.635 | 0.531
